The subject of one data set is MDA-MB-231 cells. Kind of data set: Total cellular cAMP measurement, MDA-MB-231. The data set is classed as cell-based, human. As for the experimental part:
(§1) Total cellular cAMP measurement—The measurement of total cellular cAMP was done using a cAMP Biotrak ™ Enzymeimmunoassay (EIA) system (Amersham Biosciences, Piscataway, N.J.) according to the manufacturer's protocol. Briefly, 2000 cells were plated into each well of a 96 well plate. The next day cells were treated with increasing concentrations of ARA-211 or with vehicle for one hour. Alternatively, MDA-MB-231 cells were pre-treated with antagonists to the α1 (Prazosin, Sigma), α2 (Yohimbine, Sigma), β1 (Metoprolol, Sigma), and β2 (ICI 118.551, Sigma) adrenergic receptors at 100 nM for 15 minutes followed by treatment with 10 μM ARA-211 for 45 minutes. Cells were then lysed directly in the wells using the supplied lysis buffer. The lysate was transferred to a 96-well cAMP ELISA plate, and results were quantified using a Wallac Victor 2 plate reader.

Data set [1] concerns HCT-116 cells. Kind of data set: Total cellular cAMP measurement, HCT-116. The format is cell-based, human. The protocol: as §1
A further data set concerns P-Erk 1/2. Kind of data set: P-Erk 1/2 levels (Western blotting), A-549. The data set is classed as cell-based, human. The protocol:
(§2) Western Blotting—Treated cell samples were lysed in 30 mM HEPES, 10 mM NaCl, 5 mM MgCl2, 25 mM NaF, 1 mM EGTA, 1% Triton-X-100, 10% Glycerol, 2 mM Sodium orthovanidate, 10 μg/mL aprotinin, 10 μg/mL soybean trypsin inhibitor, 25 μg/mL leupeptin, 2 mM phenylmethylsulfonylfluoride (PMSF), 6.4 mg/mL p-nitrophenylphosphate for 30 minutes at 4° C., and proteins run on SDS-PAGE gels then transferred to nitrocellulose membranes. Membranes were blocked in either 5% milk in PBS, pH 7.4, containing 0.1% Tween-20 (PBS-T) or 1% BSA in TBS, pH 7.5, containing 0.1% Tween-20 (TBS-T). Phospho-STAT3 and phospho-AKT antibodies were diluted in 1% BSA in TBS-T while phospho-c-Raf, phospho-Mek, and phospho-p44/p42 MAPK antibodies (Cell Signaling) were diluted in 5% milk in PBS-T for either 1 hour at room temperature or overnight at 4° C. HRP-conjugated secondary antibodies (Jackson ImmunoResearch, West Grove, Pa.) were diluted in 5% milk in PBS-T or TBS-T at a 1:1000 dilution for one hour at room temperature. Western blots results were visualized using enhanced chemiluminescence. Stripping of the membranes for reblotting was done using stripping buffer (62.5 mM Tris pH 7.6, 2% SDS, 0.7% 2-mercaptoethanol) at 50° C. for 30 minutes.
A general note: Immunoblotting shows a protein as a band on a membrane.

The test system of data set [2] is SNB-19 cells. Kind of data set: Anchorage-dependent growth (MTT assay), SNB-19. The format is cell-based, human. Particulars: n = 3. As for the experimental part:
MTT Assay—2000 cells per well were plated into 96 well tissue culture plates, and the cells were allowed to attach overnight at 37° C. with 10% CO2. Cells were then treated with increasing concentrations of ARA-211, or vehicle (DMSO) and incubated for four days. At that time treatment medium was removed and replaced with 100 μl of lmg/ml MTT (Sigma-Aldrich, St. Louis, Mo.) in media and incubated at 37° C., 10% CO2 for 3 hours. After 3 hours the MTT media was removed and replaced with 100 μl/well of DMSO, rocked at room temperature for 5 minutes, then absorbance read at 540 nm on a micro-plate reader.
In general terms: Tetrazolium assays rely on reduction of a dye to a coloured formazan, in cell work by metabolically active cells.

A further data set deals with A-549 cells. Kind of data set: Anchorage-independent growth (soft agar assay), A-549. The data set is classed as cell-based, human. Particulars: n = 6. As for the experimental part:
Soft Agar Assay—Anchorage independent growth assays were performed as previously described (Lerner et al., 1997). Briefly, agar was diluted to 0.3% in propagation media containing 20,000 cells and either vehicle or ARA-211 and 1 ml of cell/agar mixture plated on top of 2 ml of a 0.6% layer of agar in medium alone. Cells were grown for three to four weeks at 37° C., 10% Co2 and were fed weekly with 100 μl per well of media/treatment. Quantification of colonies was done using a GS-700 scanning densitometer.

The subject of data set [3] is SNB-19 cells. Kind of data set: Apoptosis assay (Cell Death Detection ELISA), SNB-19. Particulars: 48 hours, two single values. The format is cell-based, human. The protocol: Apoptosis Assay—Apoptosis was analyzed using the Cell Death Detection ELISA (Roche, Indianapolis, Ind.) measuring cytoplasmic histone-associated mono- and oligonucleosome DNA fragments. Procedures were carried out according to the manufacturers protocol. Briefly, 1×10^5 cells were plated in 60 mm dishes and treated with various doses of ARA-211 or vehicle for 48 hours. Cells were lysed with the provided lysis buffer and lysate was incubated on the ELISA plate for 1 hour to capture the histone associated DNA indicative of apoptotic cells. Anti-DNA peroxidase conjugated antibody was added to detect the cleaved DNA and the microplate was washed and developed with ABTS substrate which was quantitated by microplate reader at 405 nm.
A general note: In an ELISA, binding on a coated surface is turned into a signal by an enzyme label.

The next data set relates to P-c-Raf-1. Kind of data set: P-c-Raf-1 levels (Western blotting), MDA-MB-231. The format is cell-based, human. As for the experimental part:
as §2

For a further data set, the system named is P-p38. Kind of data set: P-p38 levels (Western blotting), MDA-MB-231. The format is cell-based, human.
The test system of a further data set is protein kinase A (PKA). Kind of data set: PKA kinase assay, MDA-MB-231 cells. The format is cell-based, human. The protocol: PKA Kinase Assay—PKA kinase assays were performed with the SignaTECT® cAMP-Dependent Protein Kinase (PKA) Assay System (Promega, Madison Wis.) according to the manufacturer's protocol. Briefly, cells were plated (5×10^6) into 100 mm dishes and treated the next day with ARA-211, H-89 (EMD Biosciences), or vehicle. Cells were lysed using a Dounce homogenizer and lysates were incubated in the supplied kinase reaction buffer, with ^32P-ATP and biotin labeled PKA peptide substrate for 5 min at 37° C. Once the reactions were quenched they were spotted onto streptavidin membranes and ^32P-ATP transfer was measured via scintillation counter.

Data set [4] deals with HCT-116 cells. Kind of data set: Nude mouse xenograft model, HCT-116 (s.c.). The data set is classed as in vivo, nude mice. Particulars: HCT-116 xenograft; i.p. 75 mpk/day. From the text:
Anti-tumor activity in nude mouse xenograft model—Female athymic nude (nu/nu) mice, 5-6 weeks old, were purchased from Charles River (Wilmington, Mass.) and allowed to acclimate in the animal facility for one week. After harvesting, A-549, SNB-19, ACHN, and HCT-116 cells were, resuspended in sterile PBS, and injected s.c. into the right and left flanks (10×10^6 cells per flank) of the mice as previously described (Sun et al., 2005). For MDA-MB-231, cells were harvested and resuspended in PBS (10×10^6 cells per 50 μl) and an equal volume of Matrigel (BD Biosciences, San Jose, Calif.). 100 μl of MDA-MB-231 cells in PBS/Matrigel were injected s.c. into the mammary fat pads between the 2nd and 3rd nipples on each side of the mice. Once the tumors reached approximately 200-300 mm^3 the mice were randomized and treated i.p. with 0.1 ml vehicle (PBS) or ARA-211. Each treatment group consisted of five mice (2 tumors per mouse, a total of 10 tumors). The tumor volumes were determined by measuring the length (l) and width (w) and calculating the volume (V=w^2l/2). Statistical significance between the control and treated animals was determined using a student's t test.

Structures are written as SMILES. Structures can show the parent of a compound that is named as a salt.

On to `CC(C)(C)NCC(O)c1ccc(O)c(CO)n1` (stereo not drawn) [ARA-211, 2-hydroxymethyl-3-hydroxy-6-(1-hydroxy-2-tert-butylaminoethyl) pyridine, dihydrochloride], for which, in the data set on MDA-MB-231 cells, the “cAMP (Fold Induction)” value was found to be 16.7 ± 5.4 Fold and the “formation of cAMP” value is “induced the formation of CAMP”. In the data set on MDA-MB-231 cells (β1, β2, α1, α2 antagonists 100 nM pre-treatment, 10 μM ARA-211), the “adrenergic receptor selectivity (which antagonist blocks cAMP induction)” value is recorded as “highly selective for β2 adrenergic receptors”. Besides, the “cAMP (Fold Induction)” value with HCT-116 cells [1] turned out to be 1.1 ± 0.1 Fold. Besides, the “P-Erk ½ (% Inhibition)” value in the data set on P-Erk 1/2 is on record as 0%. Besides, in the data set with SNB-19 cells [2], the “Anchorage Dependent Growth (% Inhibition)” value is 0 (n = 3) %. For the same compound, the “Anchorage Independent Growth (% Inhibition)” value in the data set with A-549 cells is 0 (n = 6) %. The “Apoptosis (% Induction)” value in the data set on SNB-19 cells [3] is reported as 0, 0%. Also, the P-c-Raf-1 levels entry in the data set with P-c-Raf-1 is “not”. Further, the P-p38 levels entry in the data set on P-p38 was “not”. The “activation of protein kinase A (PKA)” value in the data set with protein kinase A (PKA) is reported as “activation of protein kinase A (PKA)”. Further, the growth of tumors result in the data set on HCT-116 cells [4] is listed as “is not affected”.

These data come from US7713960B2, “Inhibition of the Raf/Mek/P-Erk pathway for treating cancer” (University of South Florida, priority 2005, dated 2010).
